The nature of data set [1]: Solubility testing of peptides in buffer. Format: physicochemical.
Another data set deals with T1, RXFP1 (Homo sapiens, UniProt Q9HBX9).
T1 sequence (Q9HBX9 1-757): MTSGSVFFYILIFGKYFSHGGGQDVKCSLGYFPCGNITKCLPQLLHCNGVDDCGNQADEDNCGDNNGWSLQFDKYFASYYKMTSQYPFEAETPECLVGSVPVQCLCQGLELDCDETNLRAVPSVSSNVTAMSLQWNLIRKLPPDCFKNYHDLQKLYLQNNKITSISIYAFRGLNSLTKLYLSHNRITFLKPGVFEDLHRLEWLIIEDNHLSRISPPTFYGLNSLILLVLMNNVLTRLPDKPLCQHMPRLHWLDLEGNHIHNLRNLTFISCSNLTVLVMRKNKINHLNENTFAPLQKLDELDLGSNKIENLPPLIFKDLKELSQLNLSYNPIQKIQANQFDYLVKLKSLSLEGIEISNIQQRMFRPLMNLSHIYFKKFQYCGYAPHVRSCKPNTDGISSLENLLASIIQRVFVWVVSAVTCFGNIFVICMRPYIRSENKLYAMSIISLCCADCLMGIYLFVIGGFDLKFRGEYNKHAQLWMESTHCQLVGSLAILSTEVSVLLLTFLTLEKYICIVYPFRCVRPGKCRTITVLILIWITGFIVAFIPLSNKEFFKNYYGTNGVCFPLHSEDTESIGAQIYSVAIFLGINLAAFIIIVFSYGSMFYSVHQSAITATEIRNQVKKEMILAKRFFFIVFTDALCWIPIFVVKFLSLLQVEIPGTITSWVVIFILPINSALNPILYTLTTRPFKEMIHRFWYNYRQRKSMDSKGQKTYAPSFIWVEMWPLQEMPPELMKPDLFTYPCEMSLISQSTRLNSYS
The data set can be described thus: OVCAR5 cAMP assay (RXFP1 agonist activity, HTRF). The following applies: for Emax: OVCAR-5, read-out: cAMP assay in OVCAR 5 cells Emax, maximal intracellular cAMP relative to H2-relaxin in the same test occasion; for EC50: cAMP assay in OVCAR 5 cells EC50 (nM), OVCAR5 cells expressing endogenous RXFP1, cAMP by HTRF, 30 min at 37° C., 1 mM IBMX.

The nature of a further data set: Stability in rat plasma. Format: in vitro ADME. To be noted: 37° C.; for Rat plasma stability % remaining, T = 0: 5 μM; for remaining at 1 h, 5 μM / remaining at 4 h, 5 μM: rat plasma (sodium or lithium heparin). The method, then:
(§1) Prior to the testing of stability in plasma of a peptide batch, its purity (HPLC-UV) was determined.
(§2) Rat and Human plasma: anti-coagulant sodium or lithium heparin.
(§3) 100 μM solution of study compound in 50 mM Phosphate buffer pH 7.4.
(§4) 950 μL plasma is pre-incubated for 5 min at 37° C. 50 μL of compound stock solution is added. Final compound concentration=5 μM. Vortex and transfer 1504, plasma into an Eppendorf for each time point. The time points 0-1 and −4 h are carried out in duplicate for each species.
(§5) After incubation extract 1504, plasma with 6004, Acetonitrile containing with 1% TFA. Vortex and centrifuge 10 min at 14600 rpm. Dry 2004, supernatant under N2. Reconstitute sample in 200 μL of H2O/CH3CN 98/2+0.1% FA+50 ng/ml Labetalol and analyze using the analytical system used in solubility and stability studies.
(§6) For determination of the amount of the remaining peptide, the peak areas of the target compound at t0 and each time point […] were compared, resulting in “% remaining peptide”, following the equation
(§7) % remaining peptide=[(peak area peptide time)×100]/peak area peptide t0. The stability is expressed as “% remaining peptide”.

A short description of data set [2]: Stability in human plasma. The data set is classed as in vitro ADME. The following applies: 37° C.; for Human Plasma stability % remaining, T = 0: 5 μM; for remaining at 1 h, 5 μM / remaining at 4 h, 5 μM: human plasma (sodium or lithium heparin). How it is done: as §1, §2, §3, §4, §5, §6, §7
Setting [3] is: acetate buffer, pH 4.5, read-out: Solubility Acetate buffer pH 4.5.
Where [4] appears, read: phosphate buffer, pH 7.4, read-out: Solubility phosphate buffer pH 7.4.
Where [5] appears, read: Phosphate buffer 50 mM pH 7.4, target solubility 2.0 mg/ml, ~19 h, read-out: Solubility phosphate buffer pH 7.4.

Values after ≈ are worked out from the molar mass of the structure shown. Where two headings read alike, the source gives them in different places. Non-standard residues stand in square brackets, D forms with d. Residues, ends and D or L forms follow the SMILES beside them. Phe(4-F) = N[C@@H](Cc1ccc(F)cc1)C(=O)O; Nle = CCCC[C@H](N)C(=O)O; Aib = CC(C)(N)C(=O)O

Turning to `CCCC[C@H](NC(=O)CNC(=O)[C@H](CCC(=O)O)NC(=O)C(C)(C)NC(=O)C(C)(C)NC(=O)[C@@H](NC(=O)[C@H](CCC(N)=O)NC(=O)[C@H](C)NC(=O)[C@H](CCCNC(=N)N)NC(=O)[C@@H](NC(=O)[C@H](CCCCN)NC(=O)[C@H](CCC(=O)O)NC(=O)[C@H](CCCNC(=N)N)NC(=O)CNC(=O)[C@H](CCC(=O)O)NC(=O)[C@H](CC(C)C)NC(C)=O)C(C)C)[C@@H](C)CC)C(=O)N[C@@H](CO)C(=O)N[C@H](C(=O)N[C@@H](Cc1c[nH]c2ccccc12)C(=O)N[C@@H](CO)C(=O)NC(C)(C)C(=O)N[C@@H](CCCNC(=N)N)C(=O)N[C@@H](CCCCN)C(=O)N[C@@H](CCCCN)C(N)=O)[C@@H](C)O` [compound 3] (Ac-LEGREKVRAQI[Aib][Aib]EG[Nle]STWS[Aib]RKK-NH2), the solubility in data set [1] (Acetate buffer 50 mM pH 4.5, target solubility 3.0 mg/ml, ~19 h, read-out: Solubility Acetate buffer pH 4.5) is not below 3300 µg/mL. Besides, in data set [1] (Phosphate buffer 50 mM pH 7.4, target solubility 3.0 mg/ml, ~19 h, read-out: Solubility phosphate buffer pH 7.4), the solubility was not below 2900 µg/mL. Further, the maximum response (Emax) at RXFP1 is 97%. Moreover, in “Stability in rat plasma”, the “Rat plasma stability % remaining, T = 0” value worked out at 100%; the share remaining at 1 h, 5 μM was 78%; the amount remaining at 4 h, 5 μM worked out at 55%. Besides, in data set [2], the “Human Plasma stability % remaining, T = 0” value was 100%; the amount remaining at 1 h, 5 μM is 85%; the amount remaining at 4 h, 5 μM turned out to be 64%.
Take `CC[C@H](C)[C@H](NC(=O)[C@H](CCC(N)=O)NC(=O)[C@H](C)NC(=O)[C@H](CCCNC(=N)N)NC(=O)[C@@H](NC(=O)[C@H](CCCCN)NC(=O)[C@H](CCC(=O)O)NC(=O)[C@H](CCCNC(=N)N)NC(=O)CNC(=O)[C@H](CCC(=O)O)NC(=O)[C@H](CC(C)C)NC(C)=O)C(C)C)C(=O)NC(C)(C)C(=O)NC(C)(C)C(=O)N[C@@H](CCC(=O)O)C(=O)NCC(=O)N[C@@H](CCSC)C(=O)N[C@@H](CO)C(=O)N[C@H](C(=O)N[C@@H](Cc1c[nH]c2ccccc12)C(=O)N[C@@H](CO)C(=O)NC(C)(C)C(=O)N[C@@H](CCCNC(=N)N)C(=O)N[C@@H](CCCCN)C(=O)N[C@@H](CCCCN)C(N)=O)[C@@H](C)O` [compound 4] (Ac-LEGREKVRAQI[Aib][Aib]EGMSTWS[Aib]RKK-NH2): the solubility in data set [1] (setting [3]) was not below 6100 µg/mL. Further, the solubility in data set [1] (setting [4]) is not below 5800 µg/mL. On RXFP1, the maximum response (Emax) stood at 99%. In the data set “Stability in rat plasma”, the “Rat plasma stability % remaining, T = 0” value worked out at 100%; the fraction remaining at 1 h, 5 μM came to 91%; the share remaining at 4 h, 5 μM stood at 101%. Further, in data set [2], the “Human Plasma stability % remaining, T = 0” value is on record as 100%; the amount remaining at 1 h, 5 μM was determined as 95%; the amount remaining at 4 h, 5 μM amounted to 93%.
Consider `CCCC[C@H](NC(=O)CNC(=O)[C@H](CCC(=O)O)NC(=O)C(C)(C)NC(=O)C(C)(C)NC(=O)[C@@H](NC(=O)[C@H](CCCCNC(C)=O)NC(=O)[C@H](C)NC(=O)[C@H](CCCNC(=N)N)NC(=O)[C@@H](NC(=O)[C@H](CCCCN)NC(=O)[C@H](CCC(=O)O)NC(=O)[C@H](CCCNC(=N)N)NC(=O)CNC(=O)[C@H](CCC(=O)O)NC(=O)[C@H](CC(C)C)NC(C)=O)C(C)C)[C@@H](C)CC)C(=O)N[C@@H](CO)C(=O)N[C@H](C(=O)N[C@@H](Cc1c[nH]c2ccccc12)C(=O)N[C@@H](CO)C(=O)NC(C)(C)C(=O)N[C@@H](CCCNC(=N)N)C(=O)N[C@@H](CCCCN)C(=O)N[C@@H](CCCCNC(C)=O)C(N)=O)[C@@H](C)O` [compound 5] (Ac-LEGREKVRAK(Ac)I[Aib][Aib]EG[Nle]STWS[Aib]RKK(Ac)-NH2), for which the solubility in data set [1] (setting [3]) was 4000 µg/mL (≈ 1400 µM). In addition, the solubility in data set [1] (setting [4]) came out at 4000 µg/mL (≈ 1400 µM). Besides, on RXFP1, the Emax was found to be 98% and the concentration for a half-maximal effect (EC50) is not above 10 nM. Further, in “Stability in rat plasma”, the “Rat plasma stability % remaining, T = 0” value was 100%; the share remaining at 1 h, 5 μM was 86%; the amount remaining at 4 h, 5 μM was 60%. In addition, in data set [2], the “Human Plasma stability % remaining, T = 0” value was 100%; the share remaining at 1 h, 5 μM came out at 93%; the amount remaining at 4 h, 5 μM turned out to be 74%.
As for `CCCC[C@H](NC(=O)CNC(=O)[C@H](CCC(=O)O)NC(=O)C(C)(C)NC(=O)C(C)(C)NC(=O)[C@@H](NC(=O)[C@H](CCC(N)=O)NC(=O)[C@H](C)NC(=O)[C@H](CCCNC(=N)N)NC(=O)[C@@H](NC(=O)[C@H](CCCCN)NC(=O)[C@H](CCC(=O)O)NC(=O)[C@H](CCCNC(=N)N)NC(=O)CNC(=O)[C@H](CCC(=O)O)NC(=O)[C@H](CC(C)C)NC(C)=O)C(C)C)[C@@H](C)CC)C(=O)N[C@@H](CO)C(=O)N[C@@H](CCCNC(=N)N)C(=O)N[C@@H](Cc1c[nH]c2ccccc12)C(=O)N[C@@H](CO)C(=O)NC(C)(C)C(=O)N[C@@H](CCCNC(=N)N)C(=O)N[C@@H](CCCNC(=N)N)C(=O)N[C@@H](CCCNC(=N)N)C(N)=O` [compound 55] (Ac-LEGREKVRAQI[Aib][Aib]EG[Nle]SRWS[Aib]RRR-NH2), in data set [1] (setting [5]), the solubility is not below 2500 µg/mL. In addition, on RXFP1, the Emax came out at 88% and the concentration giving a half-maximal response (EC50) was not above 5 nM.
Take `CC[C@H](C)[C@H](NC(=O)[C@H](CCC(N)=O)NC(=O)[C@H](C)NC(=O)[C@H](CCCNC(=N)N)NC(=O)[C@@H](NC(=O)[C@H](CCCCN)NC(=O)[C@H](CCC(=O)O)NC(=O)[C@H](CCCNC(=N)N)NC(=O)CNC(=O)[C@H](CCC(=O)O)NC(=O)[C@H](CC(C)C)NC(C)=O)C(C)C)C(=O)NC(C)(C)C(=O)NC(C)(C)C(=O)N[C@@H](CCC(=O)O)C(=O)NCC(=O)N[C@@H](CCC(N)=O)C(=O)N[C@@H](CO)C(=O)N[C@H](C(=O)N[C@@H](Cc1ccc(O)cc1)C(=O)N[C@@H](CO)C(=O)NC(C)(C)C(=O)N[C@@H](CCCNC(=N)N)C(=O)N[C@@H](CCCCN)C(=O)N[C@@H](CCCCN)C(N)=O)[C@@H](C)O` [compound 58] (Ac-LEGREKVRAQI[Aib][Aib]EGQSTYS[Aib]RKK-NH2): the solubility in data set [1] (setting [5]) was not below 2000 µg/mL. Also, the maximal effect (Emax) at RXFP1 worked out at 93%.
For the molecule `CC[C@H](C)[C@H](NC(=O)[C@H](CCC(N)=O)NC(=O)[C@H](C)NC(=O)[C@H](CCCNC(=N)N)NC(=O)[C@@H](NC(=O)[C@H](CCCCN)NC(=O)[C@H](CCC(=O)O)NC(=O)[C@H](CCCNC(=N)N)NC(=O)CNC(=O)[C@H](CCC(=O)O)NC(=O)[C@H](CC(C)C)NC(C)=O)C(C)C)C(=O)NC(C)(C)C(=O)NC(C)(C)C(=O)N[C@@H](CCC(=O)O)C(=O)NCC(=O)N[C@@H](CCC(N)=O)C(=O)N[C@@H](CO)C(=O)N[C@H](C(=O)N[C@@H](Cc1ccc(F)cc1)C(=O)N[C@@H](CO)C(=O)NC(C)(C)C(=O)N[C@@H](CCCNC(=N)N)C(=O)N[C@@H](CCCCN)C(=O)N[C@@H](CCCCN)C(N)=O)[C@@H](C)O` [compound 59] (Ac-LEGREKVRAQI[Aib][Aib]EGQST[Phe(4-F)]S[Aib]RKK-NH2), the solubility in data set [1] (setting [5]) is not below 2400 µg/mL. For the same molecule, the Emax at RXFP1 came out at 86%.

Values taken from patent US10988524B2, “Modified relaxin B chain peptides and their therapeutic use” (priority 2018, dated 2021).
